# Experimental data reported in patent publication US8507411B2, “Neoglycorandomization and digitoxin analogs” (priority 2004, dated 2013).
# Read-outs that look alike come from different tables or passages of the source.
# Key:
# HCT-116 = experiment: High-throughput calcein AM cytotoxicity assay, HCT-116; type: cell-based, human; settings: HCT-116 cells; read-out: IC50, HCT-116
# From the text: (§1) Standard errors are depicted with error bars.
# Hep3B = experiment: High-throughput calcein AM cytotoxicity assay, Hep3B; type: cell-based, human; settings: Hep 3B cells; read-out: IC50, Hep 3B
# From the text: as §1
# [1] = test system: nine human cancer cell lines and a mouse mammary normal epithelial control line; experiment: High-throughput calcein AM cytotoxicity assay, whole cell line panel; settings: for cytotoxicity (in words): cell line panel, 72 h, calcein AM; for IC50: Homo sapiens
# From the text: In the assay, live cells were distinguished by the presence of a ubiquitous intracellular enzymatic activity which converts the non-fluorescent cell-permeable molecule calcein AM to the intensely fluorescent molecule calcein, which is retained within live cells. The IC50 value for each library member represents at least six replicates of dose-response experiments conducted over five concentrations using two-fold dilutions. […] Standard errors are depicted with error bars. Numerical values and corresponding error values can be found in Table 4. Du145: […]; MCF7: human breast carcinoma; HCT-116: human colon carcinoma, Hep3B: human liver carcinoma; SF-268: human CNS glioblastoma; SK-OV-3: human ovary adenocarcinoma; NCI-H460: human lung carcinoma; A549: human lung adenocarcinoma; NCI/ADR-RES: human breast carcinoma; NmuMG: mouse mammary normal epithelial.
# Cell Culture: All cell lines except NmuMG were maintained in RPMI 1640 medium from InVitrogen (Cat No. 11875-085) supplemented with 10% w/v fetal bovine serum (FBS) from ICN (Cat No. 2916154) and penicillin-streptomycin (PS) (100 U/mL and 100 μg/mL) from InVitrogen (Cat No. 15140-122). NmuMG cells were maintained in DMEM medium from InVitrogen (Cat No. 11965-084) supplemented with 10% w/v fetal bovine serum (FBS) from ICN (Cat No. 2916154), 10 μg/ml insulin (InVitrogen Cat No 12585-014), and penicillin-streptomycin (PS) (100 U/mL and 100 μg/mL) from InVitrogen (Cat No. 15140-122). Cells were harvested by trypsinization using 0.25% w/v trypsin and 0.1% w/v EDTA from InVitrogen (Cat No. 15-050-057) and then counted in a hemocytometer in duplicate with better than 10% agreement in field counts. Cells were plated at a cell density of 10,000-15,000 cells/well of each Corning Costar 96-well black tissue culture treated microtiter plate (Fisher Cat No. 07-200-627). Cells were grown for 1 h at 37° C., with 5% CO2 in a humidified incubator to allow cell attachment to occur before compound addition.
# Library Member Handling and Preparation for Cytotoxicity Assays: Library members were stored at −20° C. under dessicating conditions before the assay. Library member stocks (100×) were prepared in Corning Costar polypropylene 96-well V-bottom polypropylene microtiter plates (Fisher Cat No. 07-200-695). Five serial 1:2 dilutions were made with anhydrous DMSO at 100× the final concentration used in the assay.
# Library Member Addition: The library member-containing plates were diluted 1:10 with complete cell culture media. The 10× stocks (10 μL) were added to the attached cells using a Biomek FX liquid handler (Beckman-Coulter). Library member stocks (10 μL) were added to 90 μL of cells in each plate to insure full mixing of stocks with culture media using a Beckman FX liquid handler with 96-well head.
# Determination of Cytotoxicity: Cells were incubated with the library members for 72 h before fluorescence reading. Test plates were removed from the incubator and washed 1× in sterile PBS to remove serum containing calcium esterases. Calcein AM reagent (30 μL, […]) was added and the cells were incubated for 30 min at 37° C. Plates were read for emission using a fluorescein filter (excitation 485 nm, emission 535 nm).
# IC50 Calculation: For each library member, at least six dose response experiments were conducted. […] To calculate IC50, percent inhibitions were plotted as a function of log [concentration] and then fit to a four-parameter logistic model that allowed for a variable Hill slope using XLfit 4.1.
# Cytotoxicity Assays. All cell lines except NmuMG were maintained in RPMI 1640 medium supplemented with 10% w/v fetal bovine serum (FBS) and penicillin-streptomycin (PS) (100 U/mL and 100 μg/mL).
# SK-OV-3 = experiment: cells; type: cell-based, human
# Procedure, shortened: (§2)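 Plated cells received compound dilutions after 1 h attachment and sat 72 h at 37 °C, 5% CO2. Serum was washed off with PBS before calcein AM staining, since serum esterases interfere. Four-parameter fits with variable Hill slope gave IC50s.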
# NCI/ADR-RES = experiment: cells; type: cell-based, human
# Procedure, shortened: as §2
# SF-268 = experiment: cells; type: cell-based, human
# Procedure, shortened: as §2
# NmuMG = experiment: cells; type: cell-based, mouse
# Procedure, shortened: as §2
# NCI-H460 = experiment: High-throughput calcein AM cytotoxicity assay, NCI-H460; type: cell-based, human; settings: NCI-H460 cells; read-out: IC50, NCI-H460
# From the text: as §1
# Du145 = experiment: High-throughput calcein AM cytotoxicity assay, Du145; type: cell-based, human; settings: Du145 cells; read-out: IC50, Du145
# From the text: as §1
# A549 = experiment: High-throughput calcein AM cytotoxicity assay, A549; type: cell-based, human; settings: A549 cells; read-out: IC50, A549
# From the text: as §1
# MCF7 = experiment: High-throughput calcein AM cytotoxicity assay, MCF7; type: cell-based, human; settings: MCF7 cells; read-out: IC50, MCF7
# From the text: as §1
# [2] = SK-OV-3 cells; read-out: IC50, SK-OV-3
# [3] = NCI/ADR-RES cells; read-out: IC50, NCI/ADR-RES
# [4] = SF-268 cells; read-out: IC50, SF-268
# [5] = NmuMG mouse mammary normal epithelial control line; read-out: IC50, NmuMG
# [6] = read-out: IC50, SK-OV-3; SK-OV-3 cells
# [7] = read-out: IC50, NCI/ADR-RES; NCI/ADR-RES cells
# [8] = read-out: IC50, SF-268; SF-268 cells
Molecule,IC50 (HCT-116),IC50 (Hep3B),cytotoxicity (in words) [1],IC50 (SK-OV-3; [2]),IC50 (NCI/ADR-RES; [3]),IC50 (SF-268; [4]),IC50 (NmuMG; [5]),IC50 (NCI-H460),IC50 (Du145),IC50 (A549),IC50 (MCF7),IC50 [1],IC50 (SK-OV-3; [6]),IC50 (NCI/ADR-RES; [7]),IC50 (SF-268; [8]),"IC50 (NmuMG; read-out: IC50, NmuMG; NmuMG mouse mammary normal epithelial control line)",IC50 ([1]; read-out: average IC50),"IC50 (NmuMG; Mus musculus, read-out: IC50, NmuMG)"
6-deoxy-6-azido-D-mannoside [41β],6000 nM,1800 nM,not active,2100 nM,840 nM,2500 nM,> 25000 nM,2700 nM,2000 nM,1700 nM,3300 nM,–,–,–,–,–,–,–
"CONC1CC[C@]2(C)C3CC[C@]4(C)[C@@H](C5=CC(=O)OC5)CC[C@]4(O)C3CC[C@@H]2C1 (stereo partly drawn) [3α, S—C(3) aglycon]",9000 nM,–,–,–,–,–,–,2400 nM,2900 nM,8300 nM,13000 nM,> 25000 nM,3000 nM,5100 nM,3500 nM,> 25000 nM,–,–
"CONC1CC[C@]2(C)C3CC[C@]4(C)[C@@H](C5=CC(=O)OC5)CC[C@]4(O)C3CC[C@@H]2C1 (stereo partly drawn) [3β, R—C(3)aglycon]",1200 nM,1400 nM,–,–,–,–,–,700 nM,1300 nM,1200 nM,1800 nM,–,900 nM,710 nM,1000 nM,–,~1100 nM,> 25000 nM
"CON([C@H]1CC[C@@]2(C)[C@H](CC[C@@H]3[C@@H]2CC[C@]2(C)[C@@H](C4=CC(=O)OC4)CC[C@]32O)C1)[C@@H]1O[C@H](CO)[C@@H](O)[C@H](O)[C@H]1O [4β, D-glucoside]",3800 nM,2400 nM,relatively inactive,6000 nM,1900 nM,4500 nM,3100 nM,3500 nM,8200 nM,2900 nM,10000 nM,–,–,–,–,–,–,–
